Reference: patent publication US8431704B2, “Quinoline or isoquinoline substituted P2X7 antagonists” (Janssen Pharmaceutica NV, priority 2008, dated 2013)

These compounds were tested against T1, P2X7 (Homo sapiens, UniProt Q99572) (assay: THP-1 YoPro uptake assay (BzATP-stimulated Yo-Pro-1 uptake)). Conditions: Table F-10, THP-1 cells, read-out: mean pIC50 values for P2X7 antagonism (converted).
T1 construct: endogenous in cells; host or cells: THP-1 human monocytic cell line
T1 sequence (Q99572 1-595): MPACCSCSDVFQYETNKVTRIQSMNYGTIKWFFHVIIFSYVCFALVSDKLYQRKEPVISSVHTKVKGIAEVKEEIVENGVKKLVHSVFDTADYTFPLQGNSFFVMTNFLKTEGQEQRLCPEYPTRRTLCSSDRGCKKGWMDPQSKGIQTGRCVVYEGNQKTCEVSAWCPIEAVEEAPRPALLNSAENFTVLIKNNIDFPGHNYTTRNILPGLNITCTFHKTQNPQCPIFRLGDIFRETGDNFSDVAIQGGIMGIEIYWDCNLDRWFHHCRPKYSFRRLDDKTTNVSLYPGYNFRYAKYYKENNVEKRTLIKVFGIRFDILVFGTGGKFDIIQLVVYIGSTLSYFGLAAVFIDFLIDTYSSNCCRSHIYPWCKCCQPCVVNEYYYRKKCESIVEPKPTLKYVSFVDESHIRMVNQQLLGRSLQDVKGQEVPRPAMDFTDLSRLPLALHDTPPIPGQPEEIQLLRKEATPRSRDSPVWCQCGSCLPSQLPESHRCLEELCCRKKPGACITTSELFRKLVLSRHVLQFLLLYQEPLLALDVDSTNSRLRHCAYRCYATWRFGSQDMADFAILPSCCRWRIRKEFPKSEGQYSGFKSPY
Assay type: cell-based
Description: The human monocytic cell line THP-1 was grown as a suspension culture in RPMI medium supplemented with 10% fetal bovine serum, penicillin/streptomycin (50 units/mL), 2 mM L-glutamine, and 20 μM 2-mercaptoethanol. Cells were maintained at a density below 0.5 million per mL. On the day of the assay, cells were washed twice with assay buffer, and then resuspended at 2 million per mL in assay buffer containing 2 μM Yo-Pro-1 (Invitrogen). The assay buffer contained (in mM): 280 sucrose, 5 KCl, 10 glucose, 10 HEPES, 5 N-methyl-D-glucamine. The cells were added at 200 k/well into poly-D-lysine-coated black-walled 96-well plates (Biocoat, Becton-Dickinson). Test compounds were dissolved in DMSO, and then added at the test concentration to each well of the 96-well plate. Concentration dependence of block was determined by exposing each well of cells in duplicate rows of a 96-well plate to a serial dilution of test compound. The concentration series usually started at 10 μM with a three-fold decrement in concentration. The final DMSO concentration seen by the cells was less than 0.5%. Cells were incubated with test compounds for 30 minutes at 37° C. A background reading was taken using a Gemini SpectraMax with 490 nm excitation and 530 nm emission. […] After incubation for 60 minutes at 37° C., an endpoint read was taken in the SpectraMax plate reader. The amount of block of the response was determined by comparing the fluorescence intensity in each well to the average of control wells on each plate. The control wells contained either a known antagonist of P2X7 (positive controls) or a concentration of DMSO equal to that in the test wells. Data were analyzed using a nonlinear regression program (Origin, OriginLab, MA). Results are reported as the −log of the IC50 (pIC50).

Structure (SMILES)	IC50 [nM]
O=C(NCC(c1cnc(C(F)(F)F)nc1)N1CCOCC1)c1c(Cl)ccc2nc(N3CCC(n4cn[nH]c4=O)CC3)ccc12 (centres unmarked) [Compound 446]	34.7
O=C(NCC(c1cnc(C(F)(F)F)nc1)N1CCOCC1)c1c(Cl)ccc2nc(NCc3cc(F)cc(F)c3)ccc12 (centres unmarked) [Compound 447]	309
O=C(NCC(c1cnc(C(F)(F)F)nc1)N1CCOCC1)c1c(Cl)ccc2nc(N3CCC(O)CC3)ccc12 (centres unmarked) [Compound 452]	19.5
CC1CN(c2ccc3c(C(=O)NCC(c4cnc(C(F)(F)F)nc4)N4CCOCC4)c(Cl)ccc3n2)CCO1 (centres unmarked) [Compound 453]	20.9
C[C@H]1CCCN(c2ccc3c(C(=O)NCC(c4cnc(C(F)(F)F)nc4)N4CCOCC4)c(Cl)ccc3n2)C1 (some centres unmarked) [Compound 454]	19.1
O=C(NCC(c1cnc(C(F)(F)F)nc1)N1CCOCC1)c1c(Cl)ccc2nc(N3CCN(CCO)CC3)ccc12 (centres unmarked) [Compound 455]	25.7
CC(CO)Nc1ccc2c(C(=O)NCC(c3cnc(C(F)(F)F)nc3)N3CCOCC3)c(Cl)ccc2n1 (centres unmarked) [Compound 456]	7.24
CCC(C)Nc1ccc2c(C(=O)NCC(c3cnc(C(F)(F)F)nc3)N3CCOCC3)c(Cl)ccc2n1 (centres unmarked) [Compound 457]	0.955
O=C(NCC(c1cnc(C(F)(F)F)nc1)N1CCOCC1)c1c(Cl)ccc2nc(N3CC(O)C3)ccc12 (centres unmarked) [Compound 458]	3.02
O=C(NCC(c1cnc(C(F)(F)F)nc1)N1CCOCC1)c1c(Cl)ccc2nc(N3CCCOCC3)ccc12 (centres unmarked) [Compound 459]	2.63
O=C(NCC(c1cnc(C(F)(F)F)nc1)N1CCOCC1)c1c(Cl)ccc2nc(N3C[C@@H]4CN[C@H]3C4)ccc12 (some centres unmarked) [Compound 460]	8.91
CC(=O)N1C[C@@H]2C[C@H]1N(c1ccc3c(C(=O)NCC(c4cnc(C(F)(F)F)nc4)N4CCOCC4)c(Cl)ccc3n1)C2 (some centres unmarked) [Compound 461]	107
CCN(CC)c1ccc2c(C(=O)NCC(c3cnc(C(F)(F)F)nc3)N3CCOCC3)c(Cl)ccc2n1 (centres unmarked) [Compound 462]	9.12
O=C(O)CCCNc1ccc2c(C(=O)NCC(c3cnc(C(F)(F)F)nc3)N3CCOCC3)c(Cl)ccc2n1 (centres unmarked) [Compound 463]	380
O=C(NCC(c1cnc(C(F)(F)F)nc1)N1CCOCC1)c1c(Cl)ccc2nc(N3CCC(C(=O)O)CC3)ccc12 (centres unmarked) [Compound 464]	117

Now from value to compound:

IC50 [nM]	Structure (SMILES)
7.76	O=C(NCC(c1cnc(C(F)(F)F)nc1)N1CCC(F)(F)CC1)c1c(Cl)ccc2nc(N3CC(O)C3)ccc12 (centres unmarked) [Compound 465]
8.13	O=C(NCC(c1cnc(C(F)(F)F)nc1)N1CCC(F)(F)CC1)c1c(Cl)ccc2nc(N3CCCOCC3)ccc12 (centres unmarked) [Compound 466]
6.92	CCC(C)Nc1ccc2c(C(=O)NCC(c3cnc(C(F)(F)F)nc3)N3CCC(F)(F)CC3)c(Cl)ccc2n1 (centres unmarked) [Compound 467]
22.4	O=C(NCC(c1cnc(C(F)(F)F)nc1)N1CCC(F)(F)CC1)c1c(Cl)ccc2nc(NC3CCOCC3)ccc12 (centres unmarked) [Compound 468]
7.76	O=C(NCC(c1cnc(C(F)(F)F)nc1)N1CCC(F)(F)CC1)c1c(Cl)ccc2nc(N3CC[C@@H](O)C3)ccc12 (some centres unmarked) [Compound 484]
2.24	O=C(NCC(c1cnc(C(F)(F)F)nc1)N1CCC(F)(F)CC1)c1c(Cl)ccc2nc(N3CCNCC3)ccc12 (centres unmarked) [Compound 485]
3.8	CC(C)Nc1ccc2c(C(=O)NCC(c3cnc(C(F)(F)F)nc3)N3CCC(F)(F)CC3)c(Cl)ccc2n1 (centres unmarked) [Compound 491]
2.45	CNc1ccc2c(C(=O)NCC(c3cnc(C(F)(F)F)nc3)N3CCC(F)(F)CC3)c(Cl)ccc2n1 (centres unmarked) [Compound 492]
8.71	O=C(NCC(c1cnc(C(F)(F)F)nc1)N1CCC(F)(F)CC1)c1c(Cl)ccc2nc(NC3CC3)ccc12 (centres unmarked) [Compound 493]
14.1	C[C@@H]1CN(c2ccc3c(C(=O)NCC(c4cnc(C(F)(F)F)nc4)N4CCC(F)(F)CC4)c(Cl)ccc3n2)C[C@H](C)O1 (some centres unmarked) [Compound 494]
7.41	O=C(NCC(c1cnc(C(F)(F)F)nc1)N1CCC(F)(F)CC1)c1c(Cl)ccc2nc(NCCO)ccc12 (centres unmarked) [Compound 495]
